Measured values reported in patent US20260015387A1, “MITOCHONDRIAL ANTIOXIDANT PEPTIDES” (priority 2022, published 2026).
pEC50: −log10 of the molar value. Like-named read-outs stand apart in the source and are kept apart here. Square brackets hold non-standard residues; d marks the D form. Dmt = Cc1cc(O)cc(C)c1C[C@H](N)C(=O)O

What was measured:
cardiolipin = assay: Cardiolipin binding assay (cytochrome c reduction by ascorbate); conditions: compared to SS31 (FIG. 18)
Excerpt: Cardiolipin binds to cytochrome c, preventing it from being reduced by ascorbate. When the peptide binds cardiolipin, cytochrome c is free to be reduced by ascorbate.

[1] = test system: Human HMESO malignant mesothelioma cells; assay: ROS glow assay (cellular H2O2 levels); format: cell-based; conditions: 250 mM peptide, 50 μM menadione, 4 hours; compared to the SS-31 peptide (FIG. 8)
Method: An ROS glow assay was also performed. The assay measures the levels of H2O2 after injury to the cell. Human HMESO malignant mesothelioma cells were incubated with […] of WT, 2-TH or His compound with the addition 50 μM menadione and the H2O2 substrate for 4 hours (in duplicate). The reaction was quenched with addition of the H2O2 detection substrate. Luminescence levels were measured in a plate reader after 30 minutes of incubation.

[2] = In vitro antioxidant capacity studies; conditions: in vitro data
Excerpt: Various in vitro antioxidant capacity studies and some cell-based protection assays have been performed. […] This is especially true for HOCl-mediated injury as illustrated in FIG. 9.

16HBE41o-cells = format: cell-based; conditions: for Protection against HOCl-mediated cell death: cells treated with 200 μM HOCl, MTT assay
Method: 16HBE41o-cells were treated with 200 μM of HOCl for 60 min in PBS with or without increasing concentrations of peptides. Cells were washed and then placed back in media and cell viability was assess at 24 hours using the MTT assay. % Protection was determined by normalizing data to cell viability with and without oxidant.
An HOCl protection assay using 16HBE41o-cells was performed. This assay measured protection against cell death using HOCl as the oxidant. RH8=2TH peptide and RH9=His peptide. […] For this assay, 16HBE41o-cells were treated with 200 μM of HOCl for 60 minutes in PBS with or without increasing concentrations of test compounds. Cells were washed and then placed back in media and cell viability was assess at 24 hours using the MTT assay. % Protection was determined by normalizing data to cell viability with and without oxidant. Data curves were generated using Prism 8 software (GraphPad) for 50% effective concentration (EC50) determinations and their respective 95% confidence intervals.

[3] = Hydroxyl radical scavenging measured by EPR; conditions: DMPO trap, compared to the SS-31 peptide (FIG. 7)
Method: Hydroxyl radical scavenging activity of peptides measured by electron paramagnetic resonance (EPR). Hydroxyl radical was generated by a reaction of 0.8 mM FeSO4, with 0.8-mM H2O2, pH 7.0 (250 μL). The hydroxyl radicals were trapped with 5,5-dimethyl-1-pyrroline-N-oxide (DMPO) prior to obtaining spectra.

[4] = DPPH antioxidant activity (radical quenching); conditions: compared to the SS-31 peptide (FIG. 3)
Method: Experiments were performed to determine DPPH antioxidant activity. Radical concentration of DPPH was determined after reacting with varying concentrations of peptide. DPPH is an organic radical with a peak ABS at 525 nm.

[5] = ABTS radical quenching assay; conditions: FIGS. 4-6
Method: ABTS assays were also performed. ABTS is a radical cation that is blue in color and absorbs light at 734 nm. 7 mM AzBTS was mixed in water with 2.45 mM potassium persulfate and left 16 hrs in the dark at rt to oxidize. […] The ABTS solution was diluted to an absorbance of ˜0.7 at 734 nm. Samples were assayed with ABTS: 990 μL ABTS solution+10 μL sample. Stocks of peptides were made with concentrations in the range of 0.1 mM to 3.2 mM. This assay may be a better choice than DPPH if there is less steric hindrance. FIGS. 4-6 show the results of these experiments.

[6] = test system: cellular reactive oxygen species; conditions: ROS caused by 1-butyl hydroperoxide; cited from earlier work
[7] = after global ischemia; cited from earlier work

Compound	Binding to cardiolipin (CL) (cardiolipin)	Cellular levels of H2O2 [1]	Antioxidant activity (overall comparison) [2]	pEC50 (16HBE41o-cells; cells treated with 200 μM HOCl for 60 min in PBS, viability at 24 hours, MTT, read-out: EC50 of protection against HOCl-mediated cell death)	Protection against HOCl-mediated cell death (16HBE41o-cells)	Scavenging of the hydroxyl radical [3]	Scavenging of the DPPH radical [4]	Quenching of the ABTS radical [5]	Scavenging of cellular reactive oxygen species [6]	Prevention of reperfusion-associated myocardial stunning [7]	Protection against HOCl-mediated cell death (16HBE41o-cells; listed as WT peptide)
N=C(N)NCCC[C@@H](N)C(=O)N[C@@H](Cc1c[nH]c(=S)[nH]1)C(=O)N[C@@H](CCCCN)C(=O)N[C@@H](Cc1ccccc1)C(N)=O [RH8]	binds to CL equally well as SS31	significantly lower compared to the SS-31 peptide	significantly better antioxidant than the SS-31 peptide	4.30	protects strongly	better at scavenging	better at scavenging the DPPH radical	–	–	–	–
H-[dR][Dmt]KF-NH2 [SS-31]	–	–	–	–	did not protect against HOCl-mediated injury at all	–	–	quenches the ABTS radical better	scavenged cellular reactive oxygen species	prevented reperfusion-associated myocardial stunning	did not show any protection
